Results published in PMC3620317, “Optimisation of Embryonic and Larval ECG Measurement in Zebrafish for Quantifying the Effect of QT Prolonging Drugs” (PLoS ONE, 2013).
“And” between values parts separate entries of the source, which are not always exact repeats. Identical values can stand only once.

Experiments:
[1] = test system: 3 dpf zebrafish larvae; assay: ECG recording in zebrafish larvae before and after drug treatment; conditions: for Effect on heart rate (ƒH): immobilising agents, MESAB at very high concentrations, tubocurarine at any tested concentration; for Mean interval duration QT / Mean interval duration QTc / Mean interval duration RR / Mean QTc interval duration, After: 3 dpf; for Mean interval duration QT / Mean interval duration QTc / Mean interval duration RR: n = 10; for Effect on QTc interval (in words): 3 dpf zebrafish larvae, over the tested concentrations; for AV block: at particular concentrations and exposure times
Description: For all experiments, except the anaesthetic and tubocurarine experiments, fish larvae were anaesthetised in ethyl-3 aminobenzoate methanesulfonate (0.3 mg/ml; Sigma) for 5–10 mins before transfer into 3 ml of embryo medium in the plate used for subsequent measurements. Once anaesthetised, one embryo was then transferred to the ECG recording plate (mini Petri dish with an unscented paraffin wax surface, containing 3 ml of fresh E3 embryo medium without MESAB). The embryo was positioned ventrally within a groove in the wax, and the tip (2 µm diameter) of a filled pre-pulled borosilicate glass micropipette (P84, World Precision Instruments) was positioned on the skin surface between the ventricle and atrium (no penetration) using micromanipulators (Narishige) and Inchworm step motors (Burleigh), viewed under a Nikon microscope (SMZ600). The micropipettes were filled with MicroFil (P85, World Precision Instruments) in 3 M potassium acetate solution (Sigma) and coloured with methylene blue (Sigma) to easier visualise the tips during recordings. A chloridised silver wire which carried the electrical signal to the amplifier was inserted into the micropipettes and a second reference electrode placed in the surrounding medium during recordings. The differential amplifier (NPI electronics) used for recording was operated in DC mode with the high pass filter set at 0.1 Hz. The raw ECG signals were digitised (PowerLab; ADI Instruments) and viewed using LabChart 7 (ADI Instruments).
Non-invasive recordings were taken by applying slight pressure over the surface of the heart using the tip of a glass capillary. Invasive recordings were taken by increasing the speed and also the distance moved by the step motor to puncture the skin over the heart. All of the recording equipment was housed on an air table within a grounded Faraday cage to minimise background noise. Experiments were performed at room temperature (21°C) except when otherwise stated. Temperature was controlled using a sensor placed in the recording plate and a homemade heating element (Cryocon 24 temperature controller). For optimisation experiments, recordings were taken for 5 mins. For the temperature experiments, embryos were initially acclimatised to each temperature for 30 mins before taking a recording of 5 mins. For drug treatments, ECG recordings were taken continuously after drug addition. A 5 mins segment before drug addition and a 15 minute segment where QT prolongation was first apparent by visual observation were selected for analysis.
All drug stocks were made using either DMSO or distilled water depending on solubility, then diluted using E3 embryo medium to make up the final concentrations for recording purposes with DMSO levels at 1%. ECG recordings were taken for 5 mins in 3 ml of embryo medium before addition of drug directly to the recording plate (1 ml) to produce the desired concentration by undergoing a 1 in 4 dilution.
Analysis of the digitised ECG signal was carried out using LabChart and the mean intervals for the ECG parameters R-R, QRS, QT and QTc were calculated. For drug treatments the percentage change in the corrected QT interval (QTc) before and after drug administration was compared. One way ANOVA analysis was then performed to determine statistical significance between differences observed.
Z factor scores were also calculated to determine the robustness of the ECG system as a screening tool, using the mean QTc percentage change before and after drug treatment for each individual fish. The values before drug treatment were standardised. The Z factor score was calculated using the following equation: Z = 1– [3×(σp+σn)/(µp - µn)],
where µp and σp represent mean and SD after treatment, while µn and σn represent mean and SD before treatment. Z factor scores fall into the following range: 1 = ideal, 0.5–1 = excellent, 0–0.5 = marginal, <0 = poor.

[2] = test system: 3 dpf zebrafish; assay: Exclusion of motion artefact: myocardial contractility under excitation-contraction uncouplers; assay type: in vivo; conditions: for Effect on contraction of cardiomyocytes / myocardial contractility: drug added to embryo holding chamber
Description: Firstly, recordings were performed with and without cromakalim and secondly, comparing invasive (intracardial) and non-invasive surface recordings. Cromakalim was added to the embryo holding chamber and ECG signals were recorded before and after drug exposure (QTc values shown in Table S1). […] Therefore, as an independent approach we compared ECG signals from invasive and non-invasive electrode positioning. There was minimal difference between recordings taken invasively and non-invasively (n = 5; Fig. 2B, Table S2).

[3] = design: method as in earlier work; conditions: zebrafish larvae ref 56; cited from earlier work
[4] = tubocurarine 100 μM, continuous exposure
[5] = tubocurarine 400 μM, continuous exposure
[6] = MESAB 0.1 mg/ml, prior anaesthesia 5–10 minutes
[7] = MESAB 0.3 mg/ml, prior anaesthesia 5–10 minutes
[8] = MESAB 0.5 mg/ml, prior anaesthesia 5–10 minutes
[9] = MESAB 1 mg/ml, prior anaesthesia 5–10 minutes

COc1cc2c3cc1Oc1cc(ccc1O)C[C@@H]1c4c(cc(OC)c(O)c4Oc4ccc(cc4)C[C@@H]3N(C)CC2)CC[N+]1(C)C [tubocurarine]
Effect on heart rate (ƒH) [1]: did not affect ƒH at any of the tested concentrations | Mean interval duration QT [1, 4]: 0.3263 s | Mean interval duration QTc [1, 4]: 0.4733 s | Mean interval duration RR [1, 4]: 0.4755 s | Mean interval duration QT [1, 5]: 0.3306 s | Mean interval duration QTc [1, 5]: 0.4755 s | Mean interval duration RR [1, 5]: 0.4863 s

CC(=O)C(C)=NO [BDM, 2,3-butanedione-monoxime]
Adverse effects on ECG and embryo survival [2]: adverse effects on the ECG and embryo survival | Effect on contraction of cardiomyocytes / myocardial contractility [2]: completely remove myocardial contractility

CC1(C)Oc2ccc(C#N)cc2C(N2CCCC2=O)C1O (stereo not drawn) [cromakalim]
Effect on contraction of cardiomyocytes / myocardial contractility [2]: did not reduce contraction of cardiomyocytes | Effect on QTc interval (in words) [1]: no perturbation to the QTc interval | Mean QTc interval duration, After ([1]; cromakalim 10 µM, n = 5, before drug 0.458 s): 0.461 s | Mean QTc interval duration, After ([1]; cromakalim 25 µM, n = 5, before drug 0.459 s): 0.460 s | Mean QTc interval duration, After ([1]; cromakalim 50 µM, n = 5, before drug 0.469 s): 0.464 s | Mean QTc interval duration, After ([1]; cromakalim 100 µM, n = 5, before drug 0.453 s): 0.449 s | Mean QTc interval duration, After ([1]; cromakalim 200 µM, n = 5, before drug 0.476 s): 0.476 s | Mean QTc interval duration, After ([1]; cromakalim 300 µM, n = 5, before drug 0.475 s): 0.472 s | Mean QTc interval duration, After ([1]; cromakalim 400 µM, n = 5, before drug 0.468 s): 0.474 s

Cc1ccc2c(c1)C(=O)C1(O)CCN(c3ccccc3)C1=N2 (stereo not drawn) [blebbistatin]
Adverse effects on ECG and embryo survival [2]: adverse effects on the ECG and embryo survival | Effect on contraction of cardiomyocytes / myocardial contractility [2]: completely remove myocardial contractility

O=C(CCCN1CCC(O)(c2ccc(Cl)cc2)CC1)c1ccc(F)cc1 [haloperidol]
Effect on QTc interval (in words) [1]: apparent QT prolongation, which was found to be similar at various concentrations | AV block ([1]; 3 dpf larvae): induced an atrioventricular (AV) block and 2∶1 AV block | Mean QTc interval duration, After ([1]; haloperidol 50 µM, n = 8, before drug 0.499 s): 0.586 s | Mean QTc interval duration, After ([1]; haloperidol 100 µM, n = 8, before drug 0.511 s): 0.603 s | Mean QTc interval duration, After ([1]; haloperidol 200 µM, n = 8, before drug 0.504 s): 0.593 s | Mean QTc interval duration, After ([1]; haloperidol 300 µM, n = 8, before drug 0.480 s): 0.576 s

CC(C)(C)c1ccc(C(O)CCCN2CCC(C(O)(c3ccccc3)c3ccccc3)CC2)cc1 (stereo not drawn) [terfenadine]
Arrhythmia, ECG screenshot ([1]; 50 µM terfenadine, after 40 minutes of treatment, 3 dpf larva): arrhythmic phenotype with the presence of ectopic beats | AV block ([1]; 3 dpf larvae): 2∶1 AV block | AV block ([1]; 3 dpf larvae, listed as Terfenadine): induced an atrioventricular (AV) block | Arrhythmia development ([1]; time and concentration-dependent, 3 dpf larvae): development of an arrhythmia | Metabolism in zebrafish larvae [3]: almost completely metabolised to azacyclone and terfenadine alcohol

CCOC(=O)c1cccc(N)c1.CS(=O)(=O)O [MESAB, ethyl-3 aminobenzoate methanesulfonate]
Mean interval duration QT [1, 6]: 0.3428 s | Mean interval duration QTc [1, 6]: 0.4944 s | Mean interval duration RR [1, 6]: 0.4798 s | Mean interval duration QT [1, 7]: 0.3614 s | Mean interval duration QTc [1, 7]: 0.5049 s | Mean interval duration RR [1, 7]: 0.5123 s | Mean interval duration QT [1, 8]: 0.3515 s | Mean interval duration QTc [1, 8]: 0.5012 s | Mean interval duration RR [1, 8]: 0.4917 s | Mean interval duration QT [1, 9]: 0.3656 s | Mean interval duration QTc [1, 9]: 0.5133 s | Mean interval duration RR [1, 9]: 0.5517 s | Effect on R-R interval ([1]; MESAB at high concentrations (1 mg/ml), P<0.05): increase of the R-R interval | Effect on heart rate (ƒH) [1]: induced bradycardia

penicillin
Effect on QTc interval (in words) [1]: no effect on the QTc interval | Mean QTc interval duration, After ([1]; penicillin 0.1 µM, negative control, n = 8, before drug 0.497 s): 0.495 s | Mean QTc interval duration, After ([1]; penicillin 0.3 µM, negative control, n = 8, before drug 0.487 s): 0.492 s | Mean QTc interval duration, After ([1]; penicillin 10 µM, negative control, n = 8, before drug 0.490 s): 0.500 s | Mean QTc interval duration, After ([1]; penicillin 30 µM, negative control, n = 8, before drug 0.494 s): 0.503 s | Mean QTc interval duration, After ([1]; penicillin 50 µM, negative control, n = 8, before drug 0.489 s): 0.488 s | Mean QTc interval duration, After ([1]; penicillin 100 µM, negative control, n = 8, before drug 0.506 s): 0.508 s | Mean QTc interval duration, After ([1]; penicillin 200 µM, negative control, n = 8, before drug 0.478 s): 0.483 s | Mean QTc interval duration, After ([1]; penicillin 300 µM, negative control, n = 8, before drug 0.457 s): 0.454 s | Mean QTc interval duration, After ([1]; penicillin 400 µM, negative control, n = 8, before drug 0.514 s): 0.507 s | Mean QTc interval duration, After ([1]; penicillin 1000 µM, negative control, n = 8, before drug 0.511 s): 0.501 s

COc1ccc(CCN(C)CCCC(C#N)(c2ccc(OC)c(OC)c2)C(C)C)cc1OC (stereo not drawn) [verapamil]
Effect on QTc interval (in words) [1]: increased the QTc interval | Mean QTc interval duration, After ([1]; verapamil 10 µM, n = 8, before drug 0.482 s): 0.486 s | Mean QTc interval duration, After ([1]; verapamil 25 µM, n = 8, before drug 0.478 s): 0.484 s | Mean QTc interval duration, After ([1]; verapamil 50 µM, n = 8, before drug 0.471 s): 0.529 s | Mean QTc interval duration, After ([1]; verapamil 100 µM, n = 8, before drug 0.473 s): 0.578 s | Mean QTc interval duration, After ([1]; verapamil 200 µM, n = 8, before drug 0.484 s): 0.591 s | Mean QTc interval duration, After ([1]; verapamil 300 µM, n = 8, before drug 0.477 s): 0.622 s | Mean QTc interval duration, After ([1]; verapamil 400 µM, n = 8, before drug 0.481 s): 0.609 s | Mean QTc interval duration, After ([1]; verapamil 1000 µM, n = 8, before drug 0.466 s): 0.616 s

O=c1[nH]c2ccccc2n1C1CCN(CCCC(c2ccc(F)cc2)c2ccc(F)cc2)CC1 [pimozide]
Effect on QTc interval (in words) [1]: statistically significant increase in the corrected QT interval | AV block ([1]; 3 dpf larvae): induced an atrioventricular (AV) block | Mean QTc interval duration, After ([1]; pimozide 50 µM, n = 8, before drug 0.491 s): 0.629 s | Mean QTc interval duration, After ([1]; pimozide 100 µM, n = 8, before drug 0.470 s): 0.610 s
